Results taken from patent US9833497B2, “Human originated EGF domain proteins and use of the same” (CHENGDU SOURCEBIO LIMITED-LIABILITY COMPANY, priority 2013, dated 2017).

What was measured:
Type in all cases: cell-based
Proteus mirabilis = assay: MIC against Gram-negative bacteria: Proteus mirabilis; conditions: 5×10^5 CFU/mL
Procedure, shortened: (§1)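 Two-fold serial dilutions of each purified human EGF domain protein, three replicate wells per level, were combined with bacteria at a final 5×10^5 CFU/mL in LB. Cultures were shaken at 175 rpm, 37° C. The MIC was taken as the minimum concentration preventing growth.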

Pseudomonas aeruginosa = assay: MIC against Gram-negative bacteria: Pseudomonas aeruginosa; conditions: 5×10^5 CFU/mL
Procedure, shortened: as §1

Aeromonas hydrophila = assay: MIC against Gram-negative bacteria: Aeromonas hydrophila; conditions: 5×10^5 CFU/mL
Procedure, shortened: as §1

Klebsiella pneumonia = assay: MIC against Gram-negative bacteria: Klebsiella pneumonia; conditions: 5×10^5 CFU/mL
Procedure, shortened: as §1

E. coli DH5α = assay: Antibacterial activity: MIC and growth curve against E. coli DH5α in 96-well plate; conditions: minimal inhibitory concentration against E. coli DH5α; 96-well plate, 5×10^5 CFU/mL, 37° C., judged after 8 h
Procedure, shortened: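 Log-phase DH5α (OD600 about 0.5, 37° C, 185 rpm in LB) was pelleted, resuspended in fresh LB and seeded at 5×10^5 CFU/mL with recombinant protein at 50, 25 and 12.5 μg/mL (two-fold series), in triplicate. Plates were shaken at 175 rpm, 37° C, and OD600 was read every 30 min. MIC was the lowest concentration with no growth.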

Enterobacter cloacae = assay: MIC against Gram-negative bacteria: Enterobacter cloacae; conditions: 5×10^5 CFU/mL
Procedure, shortened: as §1

Moraxella catarrhalis = assay: MIC against Gram-negative bacteria: Moraxella catarrhalis; conditions: 5×10^5 CFU/mL
Procedure, shortened: as §1

Citrobacter diversus = assay: MIC against Gram-negative bacteria: Citrobacter diversus; conditions: 5×10^5 CFU/mL
Procedure, shortened: as §1

Proteus vulgaris = assay: MIC against Gram-negative bacteria: Proteus vulgaris; conditions: 5×10^5 CFU/mL
Procedure, shortened: as §1

Serratia marcescens = assay: MIC against Gram-negative bacteria: Serratia marcescens; conditions: 5×10^5 CFU/mL
Procedure, shortened: as §1

E. coli BL21 = assay: MIC against Gram-negative bacteria: E. coli BL21; conditions: 5×10^5 CFU/mL
Procedure, shortened: as §1

[1] = P. mirabilis, 10 h cultivation at 37° C.
[2] = P. aeruginosa, 10 h cultivation at 37° C.
[3] = A. hydrophila, 10 h cultivation at 37° C.
[4] = K. pneumonia, 10 h cultivation at 37° C.
[5] = E. cloacae, 10 h cultivation at 37° C.
[6] = M. catarrhalis, 10 h cultivation at 37° C.
[7] = C. diversus, 10 h cultivation at 37° C.
[8] = P. vulgaris, 10 h cultivation at 37° C.
[9] = S. marcescens, 10 h cultivation at 37° C.
[10] = E. coli BL21, 10 h cultivation at 37° C.
[11] = Proteus mirabilis, 96-well plate, 37° C., 10 h
[12] = Pseudomonas aeruginosa, 96-well plate, 37° C., 10 h
[13] = Aeromonas hydrophila, 96-well plate, 37° C., 10 h
[14] = Klebsiella pneumonia, 96-well plate, 37° C., 10 h
[15] = Enterobacter cloacae, 96-well plate, 37° C., 10 h
[16] = Moraxella catarrhalis, 96-well plate, 37° C., 10 h
[17] = Citrobacter diversus, 96-well plate, 37° C., 10 h
[18] = Proteus vulgaris, 96-well plate, 37° C., 10 h
[19] = Serratia marcescens, 96-well plate, 37° C., 10 h
[20] = E. coli BL21, 96-well plate, 37° C., 10 h

## PRT576 (CTCNLLGTNPQQCPSPDQCHCDPSSGQCPCLPNVQGPSCDRCAPNFWNLTSGHGCQP; listed as Homo sapiens)
Proteus mirabilis; 96-well plate, 37° C., 10 h
  MIC against P. mirabilis: 12.5 µg/mL
Pseudomonas aeruginosa; 96-well plate, 37° C., 10 h
  MIC against P. aeruginosa: 12.5 µg/mL
Aeromonas hydrophila; 96-well plate, 37° C., 10 h
  MIC against A. hydrophila: 12.5 µg/mL
Klebsiella pneumonia; 96-well plate, 37° C., 10 h
  MIC against K. pneumonia: 12.5 µg/mL
E. coli DH5α
  MIC: 12.5 µg/mL
Enterobacter cloacae; 96-well plate, 37° C., 10 h
  MIC against E. cloacae: 12.5 µg/mL
Moraxella catarrhalis; 96-well plate, 37° C., 10 h
  MIC against M. catarrhalis: 50 µg/mL
Citrobacter diversus; 96-well plate, 37° C., 10 h
  MIC against C. diversus: 12.5 µg/mL
Proteus vulgaris; 96-well plate, 37° C., 10 h
  MIC against P. vulgaris: 50 µg/mL
Serratia marcescens; 96-well plate, 37° C., 10 h
  MIC against S. marcescens: 25 µg/mL
E. coli BL21; 96-well plate, 37° C., 10 h
  MIC against E. coli BL21: 12.5 µg/mL

## PRT836 (FGHDCSLTCDDCRNGGTCLLGLDGCDCPEGWTGLICN; listed as Homo sapiens)
Proteus mirabilis; [1]
  MIC (μg/mL) P. mirabilis: 25 µg/mL
Pseudomonas aeruginosa; [2]
  MIC (μg/mL) P. aeruginosa: 50 µg/mL
Aeromonas hydrophila; [3]
  MIC (μg/mL) A. hydrophila: 12.5 µg/mL
Klebsiella pneumonia; [4]
  MIC (μg/mL) K. pneumonia: 12.5 µg/mL
E. coli DH5α
  MIC: 50 µg/mL
Enterobacter cloacae; [5]
  MIC (μg/mL) E. cloacae: 50 µg/mL
Moraxella catarrhalis; [6]
  MIC (μg/mL) M. catarrhalis: 12.5 µg/mL
Citrobacter diversus; [7]
  MIC (μg/mL) C. diversus: 25 µg/mL
Proteus vulgaris; [8]
  MIC (μg/mL) P. vulgaris: 25 µg/mL
Serratia marcescens; [9]
  MIC (μg/mL) S. marcescens: 12.5 µg/mL
E. coli BL21; [10]
  MIC (μg/mL) E. coli BL21: 12.5 µg/mL

## PRT434 (DVNECATENPCVQTCVNTYGSFICRCDPGYELEEDGVHCS; listed as Homo sapiens)
Proteus mirabilis; [1]
  MIC: 25 µg/mL
Pseudomonas aeruginosa; [2]
  MIC: 12.5 µg/mL
Aeromonas hydrophila; [3]
  MIC: 50 µg/mL
Klebsiella pneumonia; [4]
  MIC: 50 µg/mL
E. coli DH5α
  MIC: 12.5 µg/mL
Enterobacter cloacae; [5]
  MIC: 12.5 µg/mL
Moraxella catarrhalis; [6]
  MIC: 50 µg/mL
Citrobacter diversus; [7]
  MIC: 12.5 µg/mL
Proteus vulgaris; [8]
  MIC: 12.5 µg/mL
Serratia marcescens; [9]
  MIC: 25 µg/mL
E. coli BL21; [10]
  MIC: 50 µg/mL

## PRT777 (SGDRCQLQTRCQNGGQWDGLKCQCPSTFYGSSCE; listed as Homo sapiens)
Proteus mirabilis; [1]
  MIC (μg/mL) P. mirabilis: 50 µg/mL
Pseudomonas aeruginosa; [2]
  MIC (μg/mL) P. aeruginosa: 50 µg/mL
Aeromonas hydrophila; [3]
  MIC (μg/mL) A. hydrophila: 50 µg/mL
Klebsiella pneumonia; [4]
  MIC (μg/mL) K. pneumonia: 12.5 µg/mL
E. coli DH5α
  MIC: 50 µg/mL
Enterobacter cloacae; [5]
  MIC (μg/mL) E. cloacae: 12.5 µg/mL
Moraxella catarrhalis; [6]
  MIC (μg/mL) M. catarrhalis: 12.5 µg/mL
Citrobacter diversus; [7]
  MIC (μg/mL) C. diversus: 50 µg/mL
Proteus vulgaris; [8]
  MIC (μg/mL) P. vulgaris: 25 µg/mL
Serratia marcescens; [9]
  MIC (μg/mL) S. marcescens: 12.5 µg/mL
E. coli BL21; [10]
  MIC (μg/mL) E. coli BL21: 12.5 µg/mL

## PRT1229 (DINECETGLAKCKYKAYCRNKVGGYICSCLVKYTLFNFLAGIIDYDHPDCY; listed as Homo sapiens)
Proteus mirabilis; [11]
  MIC against P. mirabilis: 12.5 µg/mL
Pseudomonas aeruginosa; [12]
  MIC against P. aeruginosa: 12.5 µg/mL
Aeromonas hydrophila; [13]
  MIC against A. hydrophila: 12.5 µg/mL
Klebsiella pneumonia; [14]
  MIC against K. pneumonia: 12.5 µg/mL
E. coli DH5α
  MIC: 25 µg/mL
Enterobacter cloacae; [15]
  MIC against E. cloacae: 25 µg/mL
Moraxella catarrhalis; [16]
  MIC against M. catarrhalis: 12.5 µg/mL
Citrobacter diversus; [17]
  MIC against C. diversus: 12.5 µg/mL
Proteus vulgaris; [18]
  MIC against P. vulgaris: 12.5 µg/mL
Serratia marcescens; [19]
  MIC against S. marcescens: 12.5 µg/mL
E. coli BL21; [20]
  MIC against E. coli BL21: 12.5 µg/mL

## PRT81 (TCGPCNCDVSKGFDPDCNKTSGECHCKENHYRPPGSPTCL; listed as Homo sapiens)
Proteus mirabilis; [11]
  MIC (μg/mL) P. mirabilis: 12.5 µg/mL
Pseudomonas aeruginosa; [12]
  MIC (μg/mL) P. aeruginosa: 12.5 µg/mL
Aeromonas hydrophila; [13]
  MIC (μg/mL) A. hydrophila: 25 µg/mL
Klebsiella pneumonia; [14]
  MIC (μg/mL) K. pneumonia: 25 µg/mL
E. coli DH5α
  MIC: 12.5 µg/mL
Enterobacter cloacae; [15]
  MIC (μg/mL) E. cloacae: 12.5 µg/mL
Moraxella catarrhalis; [16]
  MIC (μg/mL) M. catarrhalis: 50 µg/mL
Citrobacter diversus; [17]
  MIC (μg/mL) C. diversus: 12.5 µg/mL
Proteus vulgaris; [18]
  MIC (μg/mL) P. vulgaris: 25 µg/mL
Serratia marcescens; [19]
  MIC (μg/mL) S. marcescens: 50 µg/mL
E. coli BL21; [20]
  MIC (μg/mL) E. coli BL21: 12.5 µg/mL

## PRT202 (KSTNCSSKCKGHAVCDHELQCQCEEGWIPPDCD; listed as Homo sapiens)
Proteus mirabilis; [1]
  MIC (μg/mL) P. mirabilis: 25 µg/mL
Pseudomonas aeruginosa; [2]
  MIC (μg/mL) P. aeruginosa: 12.5 µg/mL
Aeromonas hydrophila; [3]
  MIC (μg/mL) A. hydrophila: 12.5 µg/mL
Klebsiella pneumonia; [4]
  MIC (μg/mL) K. pneumonia: 12.5 µg/mL
E. coli DH5α
  MIC: 25 µg/mL
Enterobacter cloacae; [5]
  MIC (μg/mL) E. cloacae: 12.5 µg/mL
Moraxella catarrhalis; [6]
  MIC (μg/mL) M. catarrhalis: 12.5 µg/mL
Citrobacter diversus; [7]
  MIC (μg/mL) C. diversus: 12.5 µg/mL
Proteus vulgaris; [8]
  MIC (μg/mL) P. vulgaris: 12.5 µg/mL
Serratia marcescens; [9]
  MIC (μg/mL) S. marcescens: 25 µg/mL
E. coli BL21; [10]
  MIC (μg/mL) E. coli BL21: 12.5 µg/mL
